Data published in US20150087613A1, “Inhibition of Opioid Antinociceptive Tolerance and Withdrawal in Nociceptive Pain Therapy” (Saint Louis University, priority 2013, published 2015).

What was measured:
[1] = Solubility in EtOH on preparing the dosing solution; conditions: 5 mg dissolved in 5 ml EtOH
Male Sprague Dawley rats [2] = assay: Acute antinociceptive interaction with acute morphine (tail flick); type: in vivo, rat; conditions: IB-MECA 0.3 mg/kg i.p. 15 min before morphine 3 mg/kg i.p.
Description: (§1) Test substances or vehicle were given on day 0 through 6 after completion of the behavioral tests.

Male Balb/c mice = assay: Naloxone-precipitated withdrawal in morphine dependent mice; type: in vivo, mouse; conditions: IB-MECA 0.1 mg/kg with three day morphine regimen
Experimental: Male Balb/c mice (19-26 g) were purchased from University of Adelaide Laboratory Animal Services (Waite Campus, Adelaidem South Australia) and housed 6 per individually ventilated cage (IVC) and maintained in controlled environment (12 h light/dark cycle) with food and water available ad libitum.
A group of control mice (n=7 per strain) received an equal number of saline injections over 3 days.
EtOH was maintained at 0.02% final drug preparation. Vehicle was 0.02% EtOH in normal saline.
Immediately after the naloxone injection, animals were placed into individual Plexiglas observation cylinders (25 h×11 w cm) (Nalgene, Scoresby, VIC, Australia). Withdrawal jumping response symptoms were recorded and the frequency of jumps for each mouse was summed over 30 min. Other characteristic opioid withdrawal behaviors were also recorded such as front paw shakes and hunched/prayer postures. All testing was conducted blind to group assignment.

Male Sprague Dawley rats [3] = assay: Rat morphine antinociceptive tolerance study (osmotic minipump, tail flick test); type: in vivo
Description: Minipumps were filled according to manufacturer's specifications. The use of the osmotic pump ensures a continuous subcutaneously delivery of morphine avoiding intermittent periods of withdrawal. […] The integrity of the pump delivery system was reexamined at the end of each experiment when the spinal cords are harvested.
as §1

CNC(=O)[C@H]1O[C@@H](n2cnc3c(NCc4cccc(I)c4)ncnc32)[C@H](O)[C@@H]1O [IB-MECA, N^6-(3-iodobenzyl)-adenosine-5′-N-methyluronamide]
solubility in EtOH [1]: soluble | potentiation of antinociceptive responses to acute morphine (Male Sprague Dawley rats [2]): did not potentiate the antinociceptive responses to acute morphine | antinociception after acute morphine with IB-MECA pretreatment (Male Sprague Dawley rats [2]; at 30 min): 35+5 % antinociception | less naloxone-precipitated jumping vs morphine dependent mice receiving vehicle (Male Balb/c mice; 95% CI 1 to 17): 9 jumps/30 min | less episodes of hunched/prayer posture vs morphine dependent mice receiving vehicle (Male Balb/c mice; 95% CI 3 to 7, 30 minute observation): 5 episodes | less bouts of front paw shakes vs morphine dependent mice receiving vehicle (Male Balb/c mice; 95% CI 5 to 15): 10 bouts of front paw shakes/30 min | development of morphine-induced antinociceptive tolerance (Male Sprague Dawley rats [3]; IB-MECA i.p. daily during 7 day s.c. morphine infusion, tail flick 30 min after acute morphine, day 3 and 6, n=2): blocked the development of morphine-induced antinociceptive tolerance | effect on baseline tail flick latency (Male Sprague Dawley rats [3]; given alone daily over 6 days to rats that received saline infusion): had no effect on baseline tail flick latency
